Measurements reported in paper PMC10122656, “Siglec-6 mediates the uptake of extracellular vesicles through a noncanonical glycolipid binding pocket” (Nature Communications, 2023).
“And” between values parts separate entries of the source, which are not always exact repeats. Identical values can stand only once.

Tests used:
Siglec-1-Fc R116A = test: Ganglioside ELISA; type: binding, human; conditions: Figure 2c, replicates
Experimental: Siglec-Fc constructs designed by Rodrigues et al.[30] were used in this work. Siglec-Fc constructs were expressed using WT CHO cells in cell culture media as described above with 1% HEPES. Cells incubated as described above for one-week post confluency. The supernatant was harvested and stored at 4 °C.
The purification was heavily inspired by Rodrigues et al.[30]. The purification of the Siglec-Fcs from supernatant began with Ni^2+ affinity chromatography using an AKTA FPLC equipped with a HisTrap Excel column (GE). The column was equilibrated with fifteen column volumes (CVs) of equilibrium buffer (500 mM NaCl, 20 mM NaPO4H2, pH 7.4). The Siglec-Fc containing supernatant was then loaded in its entirety onto the column. The column was then washed with fifteen CVs of wash buffer (500 mM NaCl, 30 mM imidazole, 20 mM NaPO4H2, pH 7.4). The Siglec-Fc was then eluted in 20 in 1 mL fractions with twenty CVs of elution buffer (500 mM NaCl, 500 mM imidazole, 20 mM NaPO4H2, pH 7.4). […] A Strep-Tactin column (IBA life sciences) was washed with fifteen CVs of buffer W. The Siglec-Fc-buffer W solution was then loaded in its entirety onto the column. […] Fractions containing Siglec-Fc were pooled and dialyzed against PBS to remove any d-Desthiobiotin. After dialysis, Siglec-Fcs were concentrated using an ultra-centrifugal device (30 kDa MWCO) and aliquoted into 5 µg aliquots, and frozen. The Siglec-Fcs were then lyophilized overnight, and the lyophilized Siglec-Fcs were stored at −20 °C.
Our ELISA approach was carried out similarly to previous work by Rapoport[12] and Yamakawa[44]. Ganglioside ethanol solutions (10 µM) were prepared and then transferred in 50 µL increments to a 96-well microplate. The ethanol was removed by drying the plates overnight at room temperature. The plates were then washed with PBS, dried, and then blocked with 5% (m/V) BSA PBS for 1 h. The plates were then washed with PBS and then 2 µg/mL Siglec-Fc precomplexed to Strep-Tactin (2 Siglec-Fc:1 Strep-Tactin monomer) horse radish peroxidase was added to the microplate. The complex was incubated with the plate at room temperature for 2 h. The unbound complexes were then removed by washing in PBS and the plate was developed with Sera care TMB solution. The amount of binding was then quantified by using the background (microplate well with no ligand) subtracted absorbance at 450 nm using a Molecular Devices SpectraMAX ® iD5.

Siglec-4 WT CHO cells = target: T1, Siglec-4 WT CHO cells (Homo sapiens, UniProt P20916); test: Cell assay (liposome/EV binding, flow cytometry); type: cell-based; conditions: Sig-4 WT†; † after treatment of cells with neuraminidase; 3 mol% ganglioside liposomes; replicates
T1 construct: expressed in transfected cells
T1 sequence (P20916 20-626): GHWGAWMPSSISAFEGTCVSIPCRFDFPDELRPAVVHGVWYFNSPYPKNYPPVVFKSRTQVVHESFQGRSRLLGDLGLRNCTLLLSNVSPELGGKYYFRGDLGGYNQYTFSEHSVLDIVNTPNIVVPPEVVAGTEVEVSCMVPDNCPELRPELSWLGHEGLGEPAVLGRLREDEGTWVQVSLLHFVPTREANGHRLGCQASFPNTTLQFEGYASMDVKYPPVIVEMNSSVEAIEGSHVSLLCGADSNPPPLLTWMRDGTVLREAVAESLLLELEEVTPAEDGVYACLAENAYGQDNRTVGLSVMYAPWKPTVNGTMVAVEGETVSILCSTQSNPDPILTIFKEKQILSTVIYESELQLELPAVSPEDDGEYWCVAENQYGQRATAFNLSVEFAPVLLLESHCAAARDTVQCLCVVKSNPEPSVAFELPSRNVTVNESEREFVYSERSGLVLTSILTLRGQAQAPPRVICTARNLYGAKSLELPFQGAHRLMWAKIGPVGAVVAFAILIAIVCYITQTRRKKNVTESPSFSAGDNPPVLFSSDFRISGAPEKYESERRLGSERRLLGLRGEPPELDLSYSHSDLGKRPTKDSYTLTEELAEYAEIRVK
Experimental: (§1) Stock lipids (DSPC, Cholesterol, PEG45–DSPE) solutions were prepared by solvating the lipids in chloroform. An appropriate volume of each lipid solution was transferred to a glass test tube to reach the desired mol% of the component. The chloroform was then removed under N2 gas to yield a lipid thin film. Once dry, 100 µL of DMSO was added to the lipid-containing test tube and then the functional lipids (ganglioside, AF647–PEG45–DSPE, Siglec ligand–PEG45–DSPE, pHrodo–PEG45–DSPE, NGL) was added from their respect DMSO stock solution. The lipid mixture was then stored at −80 °C until completely frozen at which point excess DMSO was removed via lyophilization. Dry lipids were then stored at −80 °C until they were extruded. Lipid suppliers can be found in Supplementary Table 4.
(§2) Dry lipids were then hydrated in 1 mL of PBS. The lipids were then sonicated in a bath sonicator in a cycle of 1 min on, 5 min off for a total of five cycles. Liposomes were then extruded using an Avanti mini extruder first using an 800 nm filter and then a 100 nm filter yielding liposomes that were 130 ± 35 nm (Supplementary Table 5) measured using a Malvern Panalytical Zetasizer Nano S. Liposomes were stored at 4 °C.
(§3) 200,000 cells/well were plated into a 96-well U-bottom microplate and centrifuged at 300 × g for 5 min. The cells were then resuspended in 50 µL of 50 µM liposome/50 µg/mL (protein concentration) of EV solution in DMEM F12 5% FBS and incubated at 37 °C for 30 min. Excess liposomes were then removed via centrifuged at 300 × g for 5 min followed by washing the cells with FACS solution. The cells were then resuspended in (1:250 V/V) anti-Siglec-flow buffer (1% V/V FBS, 500 µM, EDTA Hank’s Balanced Salt Solution pH 7.4), solution and left to rest on ice for 30 min. The cells were then centrifuged again at 300 × g for 5 min and the cells were resuspended in FACS buffer solution and were then ready for analysis by flow cytometry. Information regarding antibody clone, catalog number supplier, label isotype, and dilution can be found in Supplementary Table 6. The Siglec-positive cells were gated on for liposome-binding analysis (Supplementary Fig. 1b).
(§4) Flow cytometry measurements were collected on a 5-laser Fortessa X-20 (BD Bioscience). All the resulting data were analyzed using FlowJo (10.5.3) software (BD Biosciences).
(§5) Cells were harvested and resuspended in complete media with either Neuraminidase A or S. The cells were then placed in a 37 °C shaking incubator for 1 h. The cells were then washed with complete media and then the liposome binding assay was performed as described above.

Siglec-9 WT CHO cells = target: T2, Siglec-9 WT CHO cells (Homo sapiens, UniProt Q9Y336); test: Cell assay (liposome/EV binding, flow cytometry); type: cell-based; conditions: for log10(MFI AF647) of GLL relative to log10(MFI AF647) of the same GLL against UT CHO cells (Fig. 2a): Sig-9 WT†, † after treatment of cells with neuraminidase, 3 mol% ganglioside liposomes, replicates
T2 construct: expressed in transfected cells
Experimental: as §1, §2, §3, §4, §5

Siglec-9 R120A CHO cells = target: T3, Siglec-9 R120A CHO cells (Homo sapiens, UniProt Q9Y336, R120A); test: Cell assay (liposome/EV binding, flow cytometry); type: cell-based; conditions: Sig-9 R120A†; † after treatment of cells with neuraminidase; 3 mol% ganglioside liposomes; replicates
T3 construct: expressed in transfected cells
Experimental: as §1, §2, §3, §4, §5

Chain of Siglec-1-Fc R116A (Q9BZZ2 20-136 R116A limits assumed): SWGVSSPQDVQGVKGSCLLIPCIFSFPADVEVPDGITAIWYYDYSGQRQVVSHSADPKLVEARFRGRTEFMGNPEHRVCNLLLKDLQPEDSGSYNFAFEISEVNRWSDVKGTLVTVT
T3 sequence (Q9Y336 18-463 R120A): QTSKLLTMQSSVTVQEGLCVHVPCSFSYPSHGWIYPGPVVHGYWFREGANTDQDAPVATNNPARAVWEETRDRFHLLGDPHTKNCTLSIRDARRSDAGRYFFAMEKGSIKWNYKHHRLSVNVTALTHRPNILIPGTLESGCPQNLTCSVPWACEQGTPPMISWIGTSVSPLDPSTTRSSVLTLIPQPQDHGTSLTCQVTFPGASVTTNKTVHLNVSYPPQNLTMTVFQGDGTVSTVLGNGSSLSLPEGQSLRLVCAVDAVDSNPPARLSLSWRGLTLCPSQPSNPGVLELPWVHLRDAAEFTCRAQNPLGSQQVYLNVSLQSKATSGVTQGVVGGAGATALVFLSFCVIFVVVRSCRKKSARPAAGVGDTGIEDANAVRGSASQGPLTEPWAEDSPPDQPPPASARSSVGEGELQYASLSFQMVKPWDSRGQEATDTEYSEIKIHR
T2 sequence (Q9Y336 18-463): as the sequence (Q9Y336 18-463 R120A) above, with A103R counted along it

Substance | ganglioside ELISA signal, Siglec-1 R (Siglec-1-Fc R116A) | log10(MFI AF647) of GLL relative to log10(MFI AF647) of the same GLL against UT CHO cells (Fig. 2a) (Siglec-4 WT CHO cells) | log10(MFI AF647) of GLL relative to log10(MFI AF647) of the same GLL against UT CHO cells (Fig. 2a) (Siglec-9 WT CHO cells) | log10(MFI AF647) of GLL relative to log10(MFI AF647) of the same GLL against UT CHO cells (Fig. 2a) (Siglec-9 R120A CHO cells) | GLL binding to Siglec-9 (in words) (Siglec-9 WT CHO cells; cell assay, optimized liposomal formulation)
GD1a | 0.06 and 0.08 and 0.11 and 0.09 | 1.02 and 0.9 and 0.95 and 0.88 | 0.29 (2×) and 0.32 | 0.17 and 0.16 (3×) | –
GD1b | 0.11 and 0.13 and 0.17 | 0.9 and 0.93 and 0.96 and 0.92 | 0.27 (2×) and 0.29 | 0.12 (2×) and 0.14 (2×) | –
GD3 | 0.22 and 0.18 and 0.24 and 0.28 | 0.51 (2×) and 0.52 and 0.5 | 0.22 and 0.21 and 0.23 | 0.21 and 0.15 (2×) and 0.19 | –
GM1 | 0.07 and 0.08 and 0.1 and 0.14 | 0.57 (2×) and 0.53 and 0.49 | 0.3 and 0.31 (2×) | 0.14 and 0.1 (2×) and 0.16 | –
GM2 | 0.07 and 0.09 and 0.15 and 0.11 | 0.08 (2×) and -0.03 and -0.04 | 0.28 and 0.29 and 0.26 | 0.15 and 0.16 and 0.17 (2×) | novel interactions were observed
GM3 | 0.33 and 0.4 and 0.43 and 0.46 | -0.11 (2×) and -0.14 and -0.2 | -0.03 and -0.01 (2×) | -0.21 and -0.17 and -0.15 and -0.13 | –
GM4 | 0.18 and 0.21 and 0.26 and 0.27 | -0.3 and -0.1 and -0.11 and -0.09 | 0.19 (2×) and 0.21 | 0.05 and 0.07 and 0.08 (2×) | –
GQ1b | -0.01 and -0.02 and 0 | 0.13 and 0.12 and 0.1 and 0.11 | 0.2 and 0.23 and 0.25 | 0.15 and 0.12 and 0.13 and 0.1 | –
GT1b | 0.02 and 0.04 and 0.03 | 1.15 and 1 and 1.11 and 1.1 | 0.55 and 0.46 and 0.54 | 0.16 (2×) and 0.11 and 0.15 | –
